Measurements: the CheMixHub ionic liquid set

Experiment: xn = mol fraction of the nth substance listed

O=C(O)CC(O)(CC(=O)O)C(=O)O + C[N+](C)(C)Cc1ccccc1.[Cl-]
101 kPa, x2 = 0.5
Conditions | electrical conductivity [S/m] | viscosity [mPa·s]
293.15 K | 3.3e-05 | –
298.09 K | 3.9e-05 | –
303.11 K | 0.000162 | –
308.2 K | 0.000519 | –
312.91 K | – | 237000
313.21 K | 0.00111 | –
318.06 K | 0.001906 | –
327.86 K | – | 52100
328.14 K | 0.005576 | –
333.12 K | 0.009475 | –

OCCO + CC[n+]1ccn(C)c1.F[B-](F)(F)F
viscosity [mPa·s]
Conditions | 293.15 K | 298.15 K | 323.15 K | 333.15 K | 343.15 K
100 kPa, x1 = 1 | 21.4 | 17.4 | 7.12 | – | 4.1
101 kPa, x2 = 0 | – | – | – | 5.19 | –

CSCC[C@H](N)C(=O)O + CCCCCCCCCCCC[N+](C)(C)C.[Br-] + O
viscosity [mPa·s], 101 kPa
Conditions | 293.15 K | 298.15 K | 303.15 K | 308.15 K | 313.15 K
x1 = 0.0001801, x2 = 0.0001083 | 1.019 | 0.904 | 0.811 | 0.746 | 0.677
x1 = 0.0001801, x2 = 0.0001624 | 1.024 | 0.907 | 0.814 | 0.749 | 0.68
x1 = 0.0001801, x2 = 0.0002165 | 1.03 | 0.909 | 0.816 | 0.75 | 0.681
x1 = 0.0001801, x2 = 0.0002706 | 1.034 | 0.912 | 0.818 | 0.752 | 0.683
x1 = 0.0001801, x2 = 0.0003247 | 1.04 | 0.915 | 0.82 | 0.754 | 0.685
x1 = 0.0001801, x2 = 0.0003788 | 1.044 | 0.919 | 0.823 | 0.756 | 0.687
x1 = 0.0001801, x2 = 0.0004329 | 1.046 | 0.922 | 0.829 | 0.758 | 0.689
x1 = 0.0001801, x2 = 0.0004869 | 1.049 | 0.927 | 0.834 | 0.76 | 0.691
x1 = 0.0001801, x2 = 0.000541 | 1.052 | 0.931 | 0.84 | 0.762 | 0.694
x1 = 0.0001802, x2 = 5.413e-05 | 1.013 | 0.9 | 0.81 | 0.745 | 0.672
x1 = 0.0008997, x2 = 0.0005439 | 1.07 | 0.912 | 0.836 | 0.761 | 0.683
x1 = 0.0008998, x2 = 0.0003808 | 1.061 | 0.906 | 0.819 | 0.751 | 0.672
x1 = 0.0008998, x2 = 0.0004351 | 1.063 | 0.908 | 0.822 | 0.753 | 0.675
x1 = 0.0008998, x2 = 0.0004895 | 1.066 | 0.91 | 0.831 | 0.756 | 0.679
x1 = 0.0008999, x2 = 0.000272 | 1.057 | 0.902 | 0.812 | 0.746 | 0.668
x1 = 0.0008999, x2 = 0.0003264 | 1.059 | 0.904 | 0.815 | 0.748 | 0.67
x1 = 0.0009, x2 = 0.0001632 | 1.053 | 0.899 | 0.809 | 0.74 | 0.663
x1 = 0.0009, x2 = 0.0002176 | 1.054 | 0.901 | 0.81 | 0.743 | 0.666
x1 = 0.0009001, x2 = 5.441e-05 | 1.048 | 0.894 | 0.805 | 0.732 | 0.658
x1 = 0.0009001, x2 = 0.0001088 | 1.051 | 0.896 | 0.807 | 0.735 | 0.66
x1 = 0.001798, x2 = 0.0001643 | 1.062 | 0.911 | 0.822 | 0.745 | 0.675
x1 = 0.001798, x2 = 0.000219 | 1.064 | 0.913 | 0.824 | 0.747 | 0.676
x1 = 0.001798, x2 = 0.0002738 | 1.066 | 0.916 | 0.827 | 0.749 | 0.678
x1 = 0.001798, x2 = 0.0003285 | 1.069 | 0.919 | 0.83 | 0.751 | 0.681
x1 = 0.001798, x2 = 0.0003832 | 1.073 | 0.921 | 0.832 | 0.756 | 0.683
x1 = 0.001798, x2 = 0.0004379 | 1.076 | 0.927 | 0.836 | 0.76 | 0.686
x1 = 0.001798, x2 = 0.0004927 | 1.079 | 0.932 | 0.84 | 0.764 | 0.692
x1 = 0.001798, x2 = 0.0005474 | 1.083 | 0.937 | 0.844 | 0.77 | 0.698
x1 = 0.001799, x2 = 5.476e-05 | 1.059 | 0.906 | 0.818 | 0.741 | 0.671
x1 = 0.001799, x2 = 0.0001095 | 1.06 | 0.909 | 0.82 | 0.743 | 0.673
